According to patent publication US20090149482A1, “STEREOCHEMICALLY DEFINED DIPEPTIDE ESTERS OF ANTIVIRAL AGENTS FOR ENHANCED OCULAR TREATMENT” (priority 2001, published 2009):
Where “and” joins values, the source holds several entries; their conditions need not be identical. Identical values can stand only once. Like-named read-outs stand apart in the source and are kept apart here.

Experiments:
hPEPT1 = target: T1, hPEPT1 (Homo sapiens, UniProt P46059); assay: [3H] Glycylsarcosine uptake and its inhibition in Caco-2 cells (affinity towards peptide transporter); format: cell-based; settings: for Vmax of Gly-Sar uptake in presence of the drug: Gly-Sar with drug (10 mM); for Ki: read-out: Ki
T1 construct: endogenous in cells; host or cells: Caco-2 (human colon carcinoma, ATCC)
T1 sequence (P46059 1-708): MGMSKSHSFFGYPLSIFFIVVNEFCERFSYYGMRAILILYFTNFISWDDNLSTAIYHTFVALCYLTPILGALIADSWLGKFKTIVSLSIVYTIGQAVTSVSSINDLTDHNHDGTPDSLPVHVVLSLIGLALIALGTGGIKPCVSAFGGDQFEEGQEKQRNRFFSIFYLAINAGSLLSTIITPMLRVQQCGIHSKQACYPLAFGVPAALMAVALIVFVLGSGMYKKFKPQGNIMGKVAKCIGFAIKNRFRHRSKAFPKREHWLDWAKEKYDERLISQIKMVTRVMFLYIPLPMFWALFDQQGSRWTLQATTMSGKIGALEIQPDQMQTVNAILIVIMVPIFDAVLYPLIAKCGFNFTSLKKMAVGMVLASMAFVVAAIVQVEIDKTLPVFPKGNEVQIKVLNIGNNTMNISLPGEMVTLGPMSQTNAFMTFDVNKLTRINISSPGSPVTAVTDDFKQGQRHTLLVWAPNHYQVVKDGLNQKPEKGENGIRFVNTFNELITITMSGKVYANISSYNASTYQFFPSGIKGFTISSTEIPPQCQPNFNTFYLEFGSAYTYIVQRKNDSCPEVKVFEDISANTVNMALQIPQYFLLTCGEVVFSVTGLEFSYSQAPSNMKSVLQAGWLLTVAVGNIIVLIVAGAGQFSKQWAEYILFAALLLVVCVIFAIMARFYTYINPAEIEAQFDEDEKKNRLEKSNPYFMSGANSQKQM
Text: Materials: [^3H] Glycylsarcosine (Gly-Sar; 4 Ci/mmol) was purchased from Moravek Biochemicals (Brea, Calif.) and [^14C] Mannitol (50 mCi/mmol) was supplied by Amersham (Piscataway, N.J.). Human colon carcinoma derived Caco-2 cells were obtained from American Type Culture Collection (ATCC, Rockville, Md.). The growth medium, Dulbecco's modified Eagle Medium was obtained from Life Technologies (Grand Island, N.Y.). […] Fetal bovine serum (FBS) was purchased from JRH Biosciences (Lenexa, Kans.). Culture flasks (75 cm^2 growth area), polyester Transwells® (pore size 0.4 Cm with diameter 6.5 mm) and polyester membranes (pore size 0.4 Cm) were procured from Costar (Bedford, Mass.). The buffer components and solvents were obtained from Fisher Scientific (St. Louis, Mo.). All the di-peptide esters of acyclovir were custom synthesized in our laboratory. […] Cell Culture: All cultures were maintained in humidified incubator at 37° C. with a 5% carbon dioxide in air atmosphere. Caco-2 cells were obtained at passage 25 from American Type Culture Collection (ATCC) and grown in plastic tissue culture flasks. […] When 80% confluent, these cells were removed by treating them with Trypsin/EDTA and plated at a density of 100,000 cells/cm^2 on collagen coated plastic dishes containing clear polyester membranes (0.636 cm^2, […]) or 12-well tissue culture treated plastic plates. Cells were then grown in medium containing 10% FBS (heat-inactivated). […] [^14C] […] Metabolism studies in Cell Suspensions: Confluent Caco-2 cells, grown in tissue culture flasks were isolated with the aid of mechanical scraper and washed thrice with DPBS. […] One-hundred micro-liters of samples were withdrawn at predetermined time intervals and the sample was purified by precipitating the cellular proteins into the organic solvent mixture and stored at −80° C. until further analysis. The protein content of the cell suspension was determined by the method of Bradford using bovine serum albumin as the standard (BioRad protein estimation kit, Hercules, Calif.). […] Transport studies: Transport experiments were done using Side-Bi-Side™ diffusion cells (type VSC-1, Crown Glass Company Inc.) and Transwell® inserts. Prior to the experiment with Gly-Sar, Caco-2 cell monolayers grown on the clear polyester membranes and Transwell® inserts were washed with DPBS (pH 6.0) and incubated at 37° C. Freshly prepared drug solutions in DPBS (pH 6.0) was placed in the donor chamber and the receiver chamber was filled with DPBS. The volumes of donor and receptor chambers were 3 ml each for Side-Bi-Side™ diffusion cells and 0.5 ml and 1.5 ml respectively for Transwell® inserts. […] The samples were stored at −80° C. until analyzed HPLC. All experiments were performed at 37° C. […] The concentration dependent uptake of glycylsarcosine was studied using [^3H] […] For Dixon plots and Dose Response studies [^3H] […] Following incubation, the cell monolayers were washed three times with ice-cold HEPES buffer to terminate the uptake experiment. After the washings cells were lysed overnight using 1 ml 0.1% (w/v) Triton X-100 in 0.3 N NaOH at room temperature. Aliquots (500 μl) from each well were then transferred to scintillation vials containing 5 ml scintillation cocktail (Fisher Scientific, Fairlawn, N.J.). […] The amount of protein in the cell lysate was measured by the BioRad protein estimation kit using bovine serum albumin as standard (BioRad Protein estimation Kit, Hercules, Calif.). Analytical Procedures: All samples were assayed using HPLC. […] The column used was a C18 Luna column 4.6×250 mm (Phenomenex). The mobile phase consisted of a mixture of buffer and an organic modifier. The percentage of organic phase was varied in order to elute compounds of interest.

in vitro = settings: human, Caco-2, pH 7.4
EBV = assay: In vitro antiviral screening, VCA Elisa; format: cell-based, epstein-barr virus
[1] = tested on: rabbit corneal cell line (SIRC)
VZV = assay: In vitro antiviral screening, CPE inhibition in HFF cells; format: cell-based, varicella zoster virus
[2] = rats, portal vein
[3] = rats, jugular vein
[4] = tested on: oligopeptide transporter on the rabbit cornea
HCMV = assay: In vitro antiviral screening, CPE inhibition in HFF cells; format: cell-based, human cytomegalovirus
HSV-1 = assay: as above; format: cell-based, herpes simplex virus 1; settings: read-out: EC50 (concentration required to inhibit viral cytopathogenicity by 50%)
HSV-2 = assay: as above; format: cell-based, herpes simplex virus 2
[5] = tested on: human fibroblast foreskin cells (HFF)
HSV-1 strain McKrae = assay: HSV-1 epithelial keratitis rabbit model, topical treatment, SLE scores; format: in vivo; settings: 14 days post-inoculation, 1% topical 5 times per day
Text: (§1) The rabbit eye is an excellent model to study acute HSV-1 epithelial keratitis. Also, spontaneous and induced ocular HSV-1 shedding and corneal epithelial disease in rabbits has been used as a model of human ocular HSV-1 reactivation and recurrence. HSV-1 strain McKrae was used in studies for epithelial keratitis. HSV-1 strain RE was used for studies of HSV stromal keratitis.
i) Epithelial Keratitis: A group of ten rabbits was used to study each compound. Both eyes of all rabbits were used. An aqueous vehicle (like a placebo) and one positive control were obtained using 1% TFT (Viroptic®). Each compound at 1% concentration (TFT=33 mM, Gly-Gly-ACV=26.6 mM, Val-Val-ACV=18.6 mM) were applied (50 μl) topically 5 times per day every two hours starting at 8:00 a.m. and ending at 4:00 p.m. The treatment began on the 3rd post-inoculation day and continued for 5 consecutive days. Slit-lamp examinations were performed once every day for 8 days and thereafter once every other day until lesions resolved.

HSV-1 strain RE = assay: HSV-1 stromal keratitis rabbit model, topical treatment, SLE scores; format: in vivo; settings: 13 days post-inoculation, 1% topical
Text: as §1
ii) Stromal Keratitis: The experiment is similar to the part (i) experiment as far as the treatment cycles for all experimental drugs (TFT and Val-Val-ACV) are concerned. The effect of Val-Val-ACV on stromal keratitis induced by intrastromal injection with a high (20 μl of a 1×10^7 pfu/ml stock) titer of HSV-1RE strain was compared to that of TFT. Each compound at 1% concentration (TFT=33 mM, Val-Val-ACV=18.6 mM) was applied topically. The same scoring as noted in Table 4 is used for stromal keratitis. Emphasis is placed on the stromal edema and visibility into the aqueous chamber and the visualization of the pupil and iris.
A group of ten rabbits were used to study each compound. Both eyes of all rabbits were treated. Three to four groups of 10 rabbits are used in one experiment. This includes vehicle control, TFT, and the newly synthesized antiviral Val-Val-ACV.

[6] = Caco-2 cell suspension at pH 7.4, * = no intact drug detected during the experiment
[7] = oral 20.0 mg/kg equivalent, total concentration in terms of ACV
[8] = oral, analyte amino acid intermediate

In the case of `NCC(=O)NC(Cc1ccc(O)cc1)C(=O)OCCOCn1cnc2c(=O)[nH]c(N)nc21` (stereo not drawn) [Gly-Tyr-ACV], the “10^2 × kobs” value (Caco-2 cell suspension; [6]) is reported as 3.21 ± 0.46 min^−1mg^−1 protein, the “Vmax of Gly-Sar uptake in presence of the drug” value (shortened to “Vmax of Gly-Sar uptake”) (hPEPT1; Lineweaver-Burk) is reported as 0.094 ± 0.11 µmol/min/mg and the Ki (hPEPT1; Lineweaver-Burk) is reported as 3940 ± 610 µM. The Ki (hPEPT1; Michaelis-Menten) was 3560 ± 1980 µM and the half-life at 0.2 mM (in vitro) was 21.5 ± 3.2 min.

With `CC(C)C(NC(=O)CN)C(=O)OCCOCn1cnc2c(=O)[nH]c(N)nc21` (stereo not drawn) [Gly-Val-ACV, Glycine-Valine-Acyclovir] the “10^2 × kobs” value (Caco-2 cell suspension; Caco-2, pH 7.4) was 0.637 ± 0.01 min^−1mg^−1 protein, the t1/2 (Caco-2 cell suspension; human, Caco-2, pH 7.4) was 108.1 ± 2.4 min and the EC50 (EBV) was 5.61 µM. The “% viable cells” value [1] was 81.1±6.7%, the EC50 (VZV) was 0.38 µM and the “Vmax of concentration dependent transport” value (Caco-2 monolayers) was 0.014±0.00058 moles cm^−2 min^−1. For the same compound, the “inhibition in transport in presence of Gly-Sar” value (Caco-2 monolayers) was 63 % inhibition, the Papp (Caco-2 monolayers; Caco-2, pH 6) was 2.80±0.59 ×10^−6 cm/sec and the Papp (Caco-2 monolayers; Caco-2, pH 7.4) was 5.23±0.57 ×10^−6 cm/sec. The Km (Caco-2 monolayers; read-out: Km of concentration dependent transport) was 3.16 ± 0.31 mM, the “AUC(0-t)(TC)” value [2, 7] was 416.1 ± 140.9 µg·min/mL and the “AUCinf(TC)” value [2, 7] was 598.7 ± 164.1 µg·min/mL. The “Clast(TC)” value ([2]; oral) was 810 ± 120 ng/mL, the “Tmax(TC)” value ([2]; oral) was 21.4 ± 5.77 min and the “AUC(0-t)(ACV)” value ([2]; oral, analyte acyclovir) was 347.8 ± 108.2 µg·min/mL. For the same compound, the “Cl(Acv)” value ([2]; oral, analyte acyclovir) was 12.5 ± 5.5 mL/min, the “Cmax(ACV)” value ([2]; oral, analyte acyclovir) was 4060 ± 1440 ng/mL and the “MRT(ACV)” value ([2]; oral, analyte acyclovir) was 64.1 ± 5.35 min. For the same compound, the “AUC(0-t)(AA)” value [2, 8] was 143.6 ± 51.4 µg·min/mL, the “Cl(AA)” value [2, 8] was 31.9 ± 5.3 ml min^−1I and the “Cmax(AA)” value [2, 8] was 990 ± 540 ng/mL. For the same compound, the “Cmax(TC)” value ([2]; oral, total concentration in terms of ACV) was 4070 ± 1030 ng/mL, the “Vmax of Gly-Sar uptake” value (hPEPT1; Lineweaver-Burk) was 0.095 ± 0.07 µmol/min/mg and the Ki (hPEPT1; Lineweaver-Burk) was 1820 ± 340 µM. For the same compound, the Ki (hPEPT1; Michaelis-Menten) was 1420 ± 240 µM, the “AUC(0-t)(CC)” value ([3]; oral 20.0 mg/kg equivalent) was 633.8 ± 115.5 µg·min/mL and the “AUCinf(CC)” value ([3]; oral 20.0 mg/kg equivalent) was 900.7 ± 74.8 µg·min/mL. For the same compound, the “Clast(CC)” value ([3]; oral) was 1100 ± 210 ng/mL, the “Cmax(CC)” value ([3]; oral) was 7200 ± 3300 ng/mL and the “Tmax(CC)” value ([3]; oral) was 22.2 ± 8.3 min. For the same compound, the “AUC(0-t)(ACV)” value ([3]; oral, analyte acyclovir) was 571.68 ± 99.22 µg·min/mL, the “Cl(ACV)” value ([3]; oral, analyte acyclovir) was 13.3 ± 3.5 mL/min and the “Cmax(ACV)” value ([3]; oral, analyte acyclovir) was 6900 ± 1500 ng/mL. For the same compound, the “MRT(ACV)” value ([3]; oral, analyte acyclovir) was 79.61 ± 10.64 min, the “AUC(0-t)(AA)” value [3, 8] was 133.1 ± 48.2 µg·min/mL and the “Cl(AA)” value [3, 8] was 26.8 ± 4.5 mL/min. For the same compound, the “Papp (% Control) of [3H] Val-ACV” value [4] was 23.7 (±6.6) % Control, the EC50 (HCMV) was 59.5 µM and the EC50 (HSV-1) was 12.6 µM. The EC50 (HSV-2) was 22.7 µM and the CC50 [5] was > 160 µM.

For `O=c1[nH]c(=O)n([C@H]2C[C@H](O)[C@@H](CO)O2)cc1C(F)(F)F` [TFT, trifluorothymidine, reference compound], the percent survival ([1]; SIRC cells, 0.025 mM) was 86.98%, the percent survival ([1]; SIRC cells, 0.1 mM) was 80.48% and the percent survival ([1]; SIRC cells, 0.5 mM) was 64.76%. For the same compound, the percent survival ([1]; SIRC cells, 1 mM) was 54.35%, the “% viable cells” value ([1]; SIRC cells, 5 mM) was 0.01% and 0.01±0.1% and the percent survival ([1]; SIRC cells, 5 mM) was 0.01%. For the same compound, the “Concentration required to achieve an SLE Score of 0.3” value (HSV-1 strain McKrae) was 33.3 mM and the “Concentration required to achieve an SLE Score of 0.2” value (HSV-1 strain RE) was 33.3 mM.

In the case of `Nc1nc2c(ncn2COCCOC(=O)CNC(=O)C(N)Cc2ccc(O)cc2)c(=O)[nH]1` (stereo not drawn) [Tyr-Gly-ACV], the “10^2 × kobs” value (Caco-2 cell suspension; [6]) is reported as 5.22 ± 0.58 min^−1mg^−1 protein, the “Vmax of Gly-Sar uptake” value (hPEPT1; Lineweaver-Burk) is reported as 0.087 ± 0.09 µmol/min/mg and the Ki (hPEPT1; Lineweaver-Burk) is reported as 8230 ± 430 µM. It also gave a Ki (hPEPT1; Michaelis-Menten) of 7990 ± 540 µM and a half-life at 0.2 mM (in vitro) of 13.3 ± 1.5 min.
